Reference: EP0925070B1, “ANTIFUNGAL COMBINATION THERAPY” (MERCK & CO., INC., priority 1996, dated 1998)

Tests used:
[1] = tested on: A. fumigatus; experiment: broth microdilution antifungal susceptibility / drug combination testing in vitro (NCCLS protocol M27-T); type: cell-based
Description: (§1) This has been shown using a broth microdilution technique which is the standard method for antifungal susceptibility testing proposed by the NCCLS (protocol M27-T). Sub-inhibitory concentrations of Compound I in combination with sub-inhibitory concentrations of AmB and sub-inhibitory concentrations of FCZ were employed. The minimal inhibitory concentrations (MICs) for AmB and Compound I were defined as the lowest drug concentration at which there was an absence of growth.
(§2) Additional drug combination testing in vitro was performed to evaluate combinations of Compound I with AmB and FCZ against clinical isolates. There was no antagonism evident between Compound I and AmB against C. albicans, A. fumigatus and C. neoformans. Fractional inhibitory indices (FIC) were approximately 0.50 or lower, indicative of additive or synergistic activity.

[2] = tested on: C. albicans; experiment: as above; type: cell-based
Description: as §1, §2

[3] = tested on: C. neoformans; experiment: as above; type: cell-based; settings: for activity against strains of C. neoformans in vitro: sub-inhibitory concentrations
Description: as §1, §2

[4] = tested on: C. albicans; experiment: drug interaction and efficacy study, disseminated candidiasis; type: in vivo; settings: Compound I 0.03 mg/kg and lower plus 0.03 mg/kg and lower of AmB
Description: (§3) Drug interaction and efficacy studies with Compound I combined with either AmB or FCZ against disseminated candidiasis, aspergillosis and cryptococcosis were performed.

[5] = tested on: A. fumigatus; experiment: drug interaction and efficacy study, disseminated aspergillosis; type: in vivo; settings: Compound I at 0.008 mg/kg combined with AmB at 0.12 mg/kg, versus the compounds administered alone
Description: as §3

[6] = tested on: C. neoformans; experiment: drug interaction and efficacy study, disseminated cryptococcosis; type: in vivo; settings: combinations of Compound I and FCZ at certain concentrations
Description: as §3

[7] = tested on: disseminated candidiasis, aspergillosis and cryptococcosis; experiment: drug interaction and efficacy studies in vivo, overall statements; settings: for adverse effects: at high, use or lower concentrations
Description: as §3

[8] = Compound I in combination with AmB

CCC(C)CC(C)CCCCCCCCC(=O)N[C@H]1C[C@@H](O)[C@@H](NCCN)NC(=O)[C@@H]2[C@@H](O)CCN2C(=O)[C@H]([C@H](O)CCN)NC(=O)[C@H]([C@H](O)[C@@H](O)c2ccc(O)cc2)NC(=O)[C@@H]2C[C@@H](O)CN2C(=O)[C@H]([C@@H](C)O)NC1=O (stereo partly shown) [Compound I]
activity in vitro [1, 8]: enhanced activity
antagonism between Compound I and AmB ([1]; in vitro, clinical isolates): no antagonism
activity in vitro [2, 8]: enhanced activity
antagonism between Compound I and AmB ([2]; in vitro, clinical isolates): no antagonism
activity of fluconazole, CFU numbers ([3]; Compound I combined with fluconazole 0.25, 0.50 and 1.0 µg/ml, organism not printed): significantly enhanced the activity of fluconazole
activity against strains of C. neoformans in vitro [3, 8]: enhanced activity
activity against strains of C. neoformans in vitro ([3]; Compound I in combination with FCZ): enhanced activity
colony forming units (CFUs) ([3]; amphotericin B 0.0075, 0.015 and 0.03 µg/ml combined with Compound I 4, 8 and 16 µg/ml, organism not printed): markedly reduced
antagonism between Compound I and AmB ([3]; in vitro, clinical isolates, C. neoformans): no antagonism
efficacy against C. albicans [4]: more efficacious than either agent administered alone
survival [5]: Significant improvement in survival
efficacy against C. neoformans [6]: Beneficial effects on efficacy
antagonism of efficacy ([7]; AmB combined with Compound I): no antagonism of efficacy
adverse effects ([7]; Compound I combined with AmB): no adverse effects
adverse effects ([7]; Compound I combined with FCZ): no adverse effects
antagonism of efficacy ([7]; FCZ combined with Compound I): no antagonism of efficacy
